Assay results: patent US10294207B2, “Pyrazole derivatives as TNIK, IKKϵ and TBK1 inhibitor and pharmaceutical composition comprising same” (GREEN CROSS CORPORATION, priority 2015, dated 2019)
Where a name gives a salt, the structure may show the parent alone.

Columns and labels:
[1] = target: T1, IKKε (Homo sapiens, UniProt Q14164); test: IKKε inhibition, ADP-Glo Kinase Assay; type: biochemical; details: luminometer
T1 construct: purchased Invitrogen PR8031B
T1 sequence (Q14164 1-716): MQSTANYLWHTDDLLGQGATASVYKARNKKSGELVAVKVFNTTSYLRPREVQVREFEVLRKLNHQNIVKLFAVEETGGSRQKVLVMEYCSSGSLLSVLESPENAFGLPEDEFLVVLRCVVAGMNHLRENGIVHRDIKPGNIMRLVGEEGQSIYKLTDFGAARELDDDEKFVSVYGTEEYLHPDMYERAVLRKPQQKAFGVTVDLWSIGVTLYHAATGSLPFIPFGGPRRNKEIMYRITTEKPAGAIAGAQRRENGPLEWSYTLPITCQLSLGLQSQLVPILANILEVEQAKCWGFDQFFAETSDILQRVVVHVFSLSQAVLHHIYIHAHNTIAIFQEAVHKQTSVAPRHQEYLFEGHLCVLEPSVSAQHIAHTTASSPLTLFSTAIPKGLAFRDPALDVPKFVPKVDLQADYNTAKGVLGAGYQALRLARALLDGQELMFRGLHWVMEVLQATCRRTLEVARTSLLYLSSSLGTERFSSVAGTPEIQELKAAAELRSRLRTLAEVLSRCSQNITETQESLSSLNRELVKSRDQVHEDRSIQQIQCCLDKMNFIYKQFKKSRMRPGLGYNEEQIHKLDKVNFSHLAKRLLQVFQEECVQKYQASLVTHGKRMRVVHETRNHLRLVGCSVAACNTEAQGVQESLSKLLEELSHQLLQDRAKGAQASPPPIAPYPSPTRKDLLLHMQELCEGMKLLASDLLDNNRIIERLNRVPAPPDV
Protocol: (§1) Inhibition activities on TNIK, IKKε and TBK1 were evaluated using the compounds of Examples 1 to 254.
(§2) The inhibition activities on TNIK, IKKε and TBK1 were measured by a luminometer, TNIK/IKKε/TBK1 Kinase Enzyme System (Promega, Ca# V4158; Invitrogen, PR8031B, Promega, Ca# V3991) and ADP-Glo Kinase Assay using ADP-Glo™ Kinase Analysis Kit (Promega, Ca# V9101) and a kinase reaction buffer [40 mM Tris(pH 7.5), 20 mM MgCl2, 0.1 mg/mL BSA] in accordance with the manufacturer's protocol.

[2] = target: T2, TBK1 (Homo sapiens, UniProt Q9UHD2); test: TBK1 inhibition, ADP-Glo Kinase Assay; type: biochemical; details: luminometer
T2 construct: purchased Promega V3991
T2 sequence (Q9UHD2 1-729): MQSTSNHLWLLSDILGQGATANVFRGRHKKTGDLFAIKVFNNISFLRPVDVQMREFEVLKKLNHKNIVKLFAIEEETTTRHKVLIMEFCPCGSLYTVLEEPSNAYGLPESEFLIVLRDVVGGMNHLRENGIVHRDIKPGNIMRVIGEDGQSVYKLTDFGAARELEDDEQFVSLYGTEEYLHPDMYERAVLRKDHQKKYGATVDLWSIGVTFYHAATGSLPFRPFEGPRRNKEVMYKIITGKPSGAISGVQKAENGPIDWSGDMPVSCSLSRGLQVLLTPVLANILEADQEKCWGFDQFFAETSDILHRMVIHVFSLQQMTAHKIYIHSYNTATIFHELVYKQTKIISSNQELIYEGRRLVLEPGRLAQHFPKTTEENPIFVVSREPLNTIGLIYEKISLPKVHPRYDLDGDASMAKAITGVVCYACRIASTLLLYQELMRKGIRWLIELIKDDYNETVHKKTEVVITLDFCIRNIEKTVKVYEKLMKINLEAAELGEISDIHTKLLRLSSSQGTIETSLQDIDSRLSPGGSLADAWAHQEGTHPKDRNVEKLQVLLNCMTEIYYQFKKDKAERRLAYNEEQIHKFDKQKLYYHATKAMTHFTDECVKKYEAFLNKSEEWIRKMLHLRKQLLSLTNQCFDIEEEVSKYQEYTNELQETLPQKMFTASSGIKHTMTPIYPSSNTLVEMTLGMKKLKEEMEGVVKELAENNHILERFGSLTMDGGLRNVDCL
Protocol: as §1, §2

| Compound | IC50 [1] | IC50 [2] |
| --- | --- | --- |
| N#CC1(NC(=O)c2ccc3[nH]nc(NC(=O)c4ccc(F)cc4)c3c2)CC1 [Example 16, N-(1-Cyanocyclopropyl)-3-(4-fluorobenzamido)-1H-indazole-5-carboxamide] | 0.91 µM | 0.39 µM |
| CCCC(NC(=O)c1ccc2[nH]nc(NC(=O)c3ccc(F)cc3)c2c1)c1cccs1 (centres unmarked) [Example 18, 3-(4-Fluorobenzamido)-N-(1-(thiophen-2-yl)butyl)-1H-indazole-5-carboxamide] | 1.23 µM | 0.21 µM |
| Cc1ccc(CNC(=O)c2ccc3[nH]nc(NC(=O)c4ccc(F)cc4)c3c2)s1 [Example 19, 3-(4-Fluorobenzamido)-N-((5-methylthiophen-2-yl)methyl)-1H-indazole-5-carboxamide] | 2.91 µM | 0.49 µM |
| O=C(NCc1ccc(C(F)(F)F)cc1)c1ccc2[nH]nc(NC(=O)c3ccc(F)cc3)c2c1 [Example 21, 3-(4-Fluorobenzamido)-N-(4-(trifluoromethyl)benzyl)-1H-indazole-5-carboxamide] | > 10 µM | > 10 µM |
| O=C(NCC1CC1)c1ccc2[nH]nc(NC(=O)c3ccc(F)cc3)c2c1 [Example 23, N-(Cyclopropylmethyl)-3-(4-fluorobenzamido)-1H-indazole-5-carboxamide] | 5.58 µM | 1.41 µM |
| CCCCNC(=O)c1ccc2[nH]nc(NC(=O)c3ccc(F)cc3)c2c1 [Example 24, N-Butyl-3-(4-fluorobenzamido)-1H-indazole-5-carboxamide] | 2.46 µM | 0.66 µM |
| CC(C)CCNC(=O)c1ccc2[nH]nc(NC(=O)c3ccc(F)cc3)c2c1 [Example 25, 3-(4-Fluorobenzamido)-N-isopentyl-1H-indazole-5-carboxamide] | 5.87 µM | 0.42 µM |
| O=C(NCc1cncs1)c1ccc2[nH]nc(NC(=O)c3ccc(F)cc3)c2c1 [Example 27, 3-(4-Fluorobenzamido)-N-(thiazol-5-ylmethyl)-1H-indazole-5-carboxamide 2,2,2-trifluoroacetate] | 0.36 µM | 0.2 µM |
| O=C(NCc1ccccn1)c1ccc2[nH]nc(NC(=O)c3ccc(F)cc3)c2c1 [Example 28, 3-(4-Fluorobenzamido)-N-(pyridin-2-ylmethyl)-1H-indazole-5-carboxamide2,2,2-trifluoroacetate] | 2.62 µM | 0.73 µM |
| CCC(NCc1ccc2[nH]nc(NC(=O)c3ccc(F)cc3)c2c1)c1cccs1 (centres unmarked) [Example 32] | > 10 µM | > 10 µM |
| CC(C)CC(NC(=O)c1ccc2[nH]nc(NC(=O)c3ccc(F)cc3)c2c1)c1cccs1 (centres unmarked) [Example 33, 3-(4-Fluorobenzamido)-N-(3-methyl-1-(thiophen-2-yl)butyl)-1H-indazole-5-carboxamide] | 6.36 µM | 4.69 µM |
| CCC(C)(NC(=O)c1ccc2[nH]nc(NC(=O)c3ccc(F)cc3)c2c1)c1cccs1 (centres unmarked) [Example 34, 3-(4-Fluorobenzamido)-N-(2-(thiophen-2-yl)butan-2-yl)-1H-indazole-5-carboxamide] | 1.74 µM | 0.58 µM |
| O=C(NCc1cccs1)c1ccc2[nH]nc(NC(=O)c3ccc(F)cc3F)c2c1 [Example 35, 3-(2,4-Difluorobenzamido)-N-(thiophen-2-ylmethyl)-1H-indazole-5-carboxamide] | 0.93 µM | 0.28 µM |

Second part, the compound after the results:

| IC50 [1] | IC50 [2] | Compound |
| --- | --- | --- |
| 0.13 µM | 0.037 µM | COc1ccc(C(=O)Nc2n[nH]c3ccc(C(=O)NCc4ccco4)cc23)cc1 [Example 2, N-(Furan-2-yl-methyl)-3-(4-methoxybenzamido)-1H-indazole-5-carboxamide] |
| 0.11 µM | 0.038 µM | COc1ccc(C(=O)Nc2n[nH]c3ccc(C(=O)NCc4cccs4)cc23)cc1 [Example 3, 3-(4-Methoxybenzamido)-N-(thiophen-2-ylmethyl)-1H-indazole-5-carboxamide] |
| 0.25 µM | 0.16 µM | Cn1cc(C(=O)Nc2n[nH]c3ccc(C(=O)NCc4cccs4)cc23)cn1 [Example 7, 3-(1-Methyl-1H-pyrazole-4-carboxamido)-N-(thiophen-2-ylmethyl)-1H-indazole-5-carboxamide] |
| 0.33 µM | 0.082 µM | COc1ccc(C(=O)Nc2n[nH]c3ccc(C(=O)NCc4cccs4)cc23)nc1 [Example 8, 3-(5-Methoxypicolinamido)-N-(thiophen-2-ylmethyl)-1H-indazole-5-carboxamide Hydrochloride] |
| 0.055 µM | 0.025 µM | O=C(Nc1n[nH]c2ccc(C(=O)NC3(c4cccs4)CC3)cc12)c1ccc(F)cc1 [Example 15, 3-(4-Fluorobenzamido)-N-(1-(thiophen-2-yl)cyclopropyl)-1H-indazole-5-carboxamide] |
| 0.35 µM | 0.31 µM | CC(C)(NC(=O)c1ccc2[nH]nc(NC(=O)c3ccc(F)cc3)c2c1)c1ccccc1 [Example 20, 3-(4-Fluorobenzamido)-N-(2-phenylpropan-2-yl)-1H-indazole-5-carboxamide] |
| 0.0089 µM | 0.00094 µM | CN1CCN(c2ccc(C(=O)Nc3n[nH]c4ccc(C(=O)NCc5ccccc5)cc34)cc2)CC1 [Example 40, N-Benzyl-3-(4-(4-methylpiperazin-1-yl)benzamido)-1H-indazole-5-carboxamide] |
| 0.047 µM | 0.0039 µM | CCC(NC(=O)c1ccc2[nH]nc(NC(=O)c3ccc(N4CCNCC4)cc3)c2c1)c1ccccc1 (centres unmarked) [Example 41, N-(1-Phenylpropyl)-3-(4-(piperazin-1-yl)benzamido)-1H-indazole-5-carboxamide] |
| 0.0049 µM | 0.0021 µM | CC(NC(=O)c1ccc2[nH]nc(NC(=O)c3ccc(N4CCOCC4)cc3)c2c1)c1cccs1 (centres unmarked) [Example 43, 3-(4-Morpholinobenzamido)-N-(1-(thiophen-2-yl)ethyl)-1H-indazole-5-carboxamide] |
| 0.0031 µM | 0.0035 µM | CC(NC(=O)c1ccc2[nH]nc(NC(=O)c3ccc(N4CCN(C)CC4)cc3)c2c1)c1cccs1 (centres unmarked) [Example 44, 3-(4-(4-Methylpiperazin-1-yl)benzamido)-N-(1-(thiophen-2-yl)ethyl)-1H-indazole-5-carboxamide] |
| 0.014 µM | 0.0021 µM | CN1CCN(c2ccc(C(=O)Nc3n[nH]c4ccc(C(=O)NC(CO)c5cccs5)cc34)cc2)CC1 (centres unmarked) [Example 45, N-(2-Hydroxy-1-(thiophen-2-yl)ethyl)-3-(4-(4-methylpiperazin-1-yl)benzamido)-1H-indazole-5-carboxamide] |
| 0.022 µM | 0.0015 µM | O=C(NCc1ccsc1)c1ccc2[nH]nc(NC(=O)c3ccc(N4CCOCC4)cc3)c2c1 [Example 46, 3-(4-Morpholinobenzamido)-N-(thiophen-3-ylmethyl)-1H-indazole-5-carboxamide] |
| 0.014 µM | 0.0014 µM | CN1CCN(c2ccc(C(=O)Nc3n[nH]c4ccc(C(=O)NCc5ccsc5)cc34)cc2)CC1 [Example 47, 3-(4-(4-Methylpiperazin-1-yl)benzamido)-N-(thiophen-3-ylmethyl)-1H-indazole-5-carboxamide] |
| 0.0032 µM | 0.0011 µM | O=C(Nc1n[nH]c2ccc(C(=O)NC3(c4cccs4)CC3)cc12)c1ccc(N2CCOCC2)cc1 [Example 48, 3-(4-Morpholinobenzamido)-N-(1-(thiophen-2-yl)cyclopropyl)-1H-indazole-5-carboxamide] |
| 0.0034 µM | 0.0025 µM | CN1CCN(c2ccc(C(=O)Nc3n[nH]c4ccc(C(=O)NC5(c6cccs6)CC5)cc34)cc2)CC1 [Example 49, 3-(4-(4-Methylpiperazin-1-yl)benzamido)-N-(1-(thiophen-2-yl)cyclopropyl)-1H-indazole-5-carboxamide] |
